{"source": "BindingDB's records for doi:10.1021/jm200390u", "about": "(Chosun University, 2011)", "biological_target": "T1, 15-hydroxyprostaglandin dehydrogenase [NAD(+)] (Homo sapiens, UniProt P15428)", "T1 sequence (P15428 whole entry)": "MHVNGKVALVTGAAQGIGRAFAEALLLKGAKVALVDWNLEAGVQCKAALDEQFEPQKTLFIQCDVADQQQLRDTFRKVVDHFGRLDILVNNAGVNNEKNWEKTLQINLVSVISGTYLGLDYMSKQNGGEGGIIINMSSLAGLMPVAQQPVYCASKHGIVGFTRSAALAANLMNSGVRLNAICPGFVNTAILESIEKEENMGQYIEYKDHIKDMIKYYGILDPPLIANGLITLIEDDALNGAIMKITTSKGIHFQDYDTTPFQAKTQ", "assay": "Inhibition of human 15-PGDH expressed in Escherichia coli using PGE2 as substrate and NAD+ as coenzyme assessed as formation of NADH by spectrophotometric analysis"}
{"smiles": "O=C1N=C(O)SC1=Cc1ccc(OCCC2CCCCC2)cc1", "values": [{"measurement": "IC50", "result": 51, "unit": "nM"}]}
